Measurements taken from PubChem BioAssay (NCI).
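Briefly, cells in 96-well plates were exposed to five compound concentrations for 48 h, and endpoints were estimated by linear interpolation. GI50: concentration for 50% inhibition of growth. TGI: total growth inhibition.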

How the values were obtained:
Experiment in all cases: NCI anticancer screen, dose series, 48 h
[1] = tested on: NCI-H522 lung
[2] = tested on: ACHN renal
[3] = tested on: SK-MEL-5 melanoma
[4] = tested on: SK-MEL-28 melanoma
[5] = tested on: OVCAR-5 ovarian
[6] = tested on: A498 renal
[7] = tested on: SNB-75 CNS
[8] = tested on: DU-145 prostate
[9] = tested on: BT-549 breast
[10] = tested on: SR leukemia

| Structure (SMILES) | TGI [1] [µM] | TGI [2] [µM] | TGI [3] [µM] | TGI [4] [µM] | TGI [5] [µM] | TGI [6] [µM] | TGI [7] [µM] | GI50 [1] [µM] | GI50 [8] [µM] | TGI [8] [µM] | GI50 [2] [µM] | GI50 [9] [µM] | TGI [9] [µM] | GI50 [3] [µM] | GI50 [4] [µM] | GI50 [5] [µM] | GI50 [6] [µM] | GI50 [7] [µM] | TGI [10] [µM] | GI50 [10] [µM] |
| --- | --- | --- | --- | --- | --- | --- | --- | --- | --- | --- | --- | --- | --- | --- | --- | --- | --- | --- | --- | --- |
| O=C(Cc1nc2ccccc2s1)Nc1cccc(C(F)(F)F)c1 | 28.4 | 28.2 | 32.2 | 28.8 | 32.5 | 22.3 | 26.8 |  |  |  |  |  |  |  |  |  |  |  |  |  |
| CCNC(=O)c1cc2c(-c3cc(C(C)(C)O)ccc3Oc3c(C)cc(F)cc3C)cn(C)c(=O)c2[nH]1 | 14.2 | 12.1 | 6.89 | 17.9 | 16.2 | 4.84 | 12.8 | 1.76 | 4.52 | 18.4 | 2.15 | 2.01 | 11.4 | 2.09 | 4.37 | 1.63 | 0.898 | 0.108 |  |  |
| NCCCNCCCCN(CCCN)/[N+]([O-])=N\O |  | > 100 | > 100 | > 100 | > 100 |  | > 100 |  |  |  |  |  |  |  |  |  |  |  | 83.9 |  |
| COc1ccc(/C=c2\sc3n(c2=O)C(N)=C(C#N)C(c2ccc(OC)cc2)C=3c2nc3ccccc3[nH]2)cc1 (configuration not stated) | > 100 | > 100 | 36.8 | 56.1 | 67.5 | > 100 | > 100 |  |  |  |  |  |  |  |  |  |  |  | > 100 |  |
| Clc1ccc(C2SCc3nc4ccccc4n32)cc1Cl (configuration not stated) | 25 | 29.1 | 21 | 25.4 | 22.8 |  | 14.3 |  |  |  |  |  |  |  |  |  |  |  | 55.1 |  |
| COc1cc(COC(=O)N(CC(=O)O)c2ccccc2)c([N+](=O)[O-])cc1OC |  | > 100 | > 100 | > 100 | > 100 | > 100 | > 100 |  |  | > 100 |  |  | > 100 |  |  |  |  |  | > 100 |  |
| CCCCCCCCCCCCCP(=O)(O)OCC | > 100 | > 100 | > 100 | > 100 | > 100 | > 100 | > 100 |  |  |  |  |  |  |  |  |  |  |  |  |  |
| CN(C)c1ccc(Nc2cc(-c3cccc(OC(F)(F)F)c3)nc3ccc(N4CCCC4)cc23)cc1 | 4.73 | 4.36 | 3.3 | 3.3 | 3.37 | 10.6 | 3.12 | 2.03 | 2.82 | 7.91 | 2.05 | 1.96 | 3.58 | 1.82 | 1.79 | 1.79 | 2.47 | 1.64 |  |  |
| C=C(Br)N(CC)CC | > 100 | > 100 | > 100 | > 100 | > 100 | > 100 | > 100 |  |  |  |  |  |  |  |  |  |  |  | > 100 |  |
| C1=CC=C2NCCCNC3=CC=CC=CC3=NCCCN=C2C=C1 |  | > 100 | > 100 | > 100 | > 100 | > 100 | > 100 |  |  |  |  |  |  |  |  |  |  |  |  |  |
| COC(=O)CCC(=O)CC(=O)C(=O)Nc1c(Cl)cc([N+](=O)[O-])cc1Cl | > 100 | > 100 | > 100 | > 100 | > 100 | > 100 | > 100 |  |  |  |  |  |  |  |  |  |  |  | 61.7 |  |
| CCc1cccc(C(C)C)c1NC(=O)C(=O)C(CC(=O)Nc1ccc(Cl)c(Cl)c1)C(=O)OC (configuration not stated) | > 100 | > 100 | > 100 | > 100 | > 100 | > 100 | > 100 |  |  |  |  |  |  |  |  |  |  |  | > 100 |  |
| C[C@]1(CO)CCC[C@@]2(C)C1CC[C@H]1CC3C[C@]12CC[C@]3(C)O (some centres not stated) | 31.1 | > 100 | 35.2 | > 100 | > 100 |  | > 100 |  |  |  |  |  |  |  |  |  |  |  | > 100 |  |
| Cc1cccc2c(=O)c3c(sc12)c(NCCNCCO)nc1ccccc13 | 3.54 | 2.83 | 3.08 | 3.31 | 3.06 | 3.7 | 2.43 | 1.63 | 1.68 | 3.12 | 1.5 | 1.58 | 3.35 | 1.65 | 1.79 | 1.61 | 1.67 | 1.15 |  |  |
| CC(C)CCN=C(N)c1ccc(N2CCN(c3ccc(C(N)=NCCC(C)C)cc3)CC2)cc1 | 73.4 | > 100 | 7.97 | 24.3 | > 100 |  |  | 8.73 | 6.95 | 71.2 | 56.8 | 0.474 | 3.1 | 3.06 | 5.89 | 38.5 |  |  | 7.44 | 2.73 |
| CCOC(=O)C1=C(C)N(c2ccc(C)cc2)C2=C(C(=O)N(c3ccccc3)C2c2ccccc2)C1c1ccccc1 (configuration not stated) |  | > 25 | > 25 | > 25 |  | > 25 | > 25 |  |  |  |  |  |  |  |  |  |  |  | > 25 |  |
| CCn1cc(C(=O)O)c(=O)c2cc3c(cc21)S(=O)(=O)CC3 | > 100 | > 100 | > 100 | > 100 | > 100 | > 100 | > 100 |  |  | > 100 |  |  | > 100 |  |  |  |  |  |  |  |
| CN(C)CCNC(=O)c1cccc2c1nc(-c1ccccc1)c1ccccc12 |  | 13.4 | 5.52 | 21.3 | 17.6 | 16.9 | 19.9 |  |  |  |  |  |  |  |  |  |  |  |  |  |
| Cc1cc(C)nc(NS(=O)(=O)c2ccc(Nc3c4ccc(Cl)cc4nc4c(C(=O)Nc5ccc(S(N)(=O)=O)cc5)cccc34)cc2)n1 | 24.1 | > 100 |  | > 100 | 28.8 | 32.6 | > 100 |  |  |  |  |  |  |  |  |  |  |  | 51.5 |  |
| O=C(CCC(=O)C(C(=O)c1ccccc1)c1ccccc1)Nc1cccc(C(F)(F)F)c1 (configuration not stated) | > 100 | > 100 |  |  | > 100 | > 100 |  |  |  |  |  |  |  |  |  |  |  |  |  |  |
| COc1cc(OC)c(/C=C/c2cnc3ccccc3n2)c(OC)c1 | > 10 | > 10 | > 10 | > 10 | > 10 | > 10 | > 10 |  |  | > 10 |  |  | > 10 |  |  |  |  |  |  |  |
| COc1cc2c3c(c1OC)-c1c(ccc4c1OCO4)CC3(C#N)N(C(=O)c1ccccc1)CC2 (configuration not stated) | > 100 |  | > 100 |  | > 100 | > 100 | 49.4 |  |  |  |  |  |  |  |  |  |  |  | > 100 |  |
| O=C1c2ccccc2C(=O)c2c1ccc(C1C(=O)c3ccccc3C1=O)c2-c1c(C2C(=O)c3ccccc3C2=O)ccc2c1C(=O)c1ccccc1C2=O | > 100 | > 100 | > 100 | > 100 | > 100 | > 100 | > 100 |  |  | > 100 |  |  | > 100 |  |  |  |  |  |  |  |
